Data on twelve compounds can be found in US9815839B2, “N-(1-(substituted-phenyl)ethyl)-9H-purin-6-amines as PI3K inhibitors” (Incyte Corporation, priority 2010, dated 2017).

What is called IC50 is the concentration needed to halve the response being measured.

For test [1], the system named is Pfeiffer cell line (diffuse large B cell lymphoma). Put plainly: Pfeiffer cell proliferation assay. The format is cell-based. As to conditions: Homo sapiens, Pfeiffer, Pfeiffer cells, 3-4 days plus 12 hours [3H]-thymidine incorporation. The procedure:
Example C: Pfeiffer Cell Proliferation Assay
Pfeiffer cell line (diffuse large B cell lymphoma) was purchased from ATCC (Manassas, Va.) and maintained in the culture medium recommended (RPMI and 10% FBS). To measure the anti-proliferation activity of the compounds, the Pfeiffer cells were plated with the culture medium (2×10^3 cells/well/per 200 μl) into 96-well ultra-low binding plates (Corning, Corning, N.Y.), in the presence or absence of a concentration range of test compounds. After 3-4 days, [^3H]-thymidine (1 μCi/well) (PerkinElmer, Boston, Mass.) in PBS was then added to the cell culture for an additional 12 hours before the incorporated radioactivity was separated by filtration with water through GF/B filters (Packard Bioscience, Meridenj, Conn.) and measured by liquid scintillation counting with a TopCount (Packard Bioscience).
In general terms: Uptake of a labelled nucleoside into DNA is a usual measure of proliferation.

Test [2] has as its target T1, PI3Kδ (p110δ/p85α) (Homo sapiens, UniProt O00329).
T1 construct: purchased Millipore (Bedford, Mass.)
Put plainly: PI3Kδ scintillation proximity assay. As to conditions: 20 μM ATP, 4 nM PI3Kδ. The format is biochemical. The method in brief:
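p110δ/p85α (4 nM) phosphorylated 20 μM PIP2 with 20 μM ATP plus [γ-33P]ATP in 20 mM MOPS pH 6.7, 10 mM MgCl2, 5 mM DTT, 0.03% CHAPS, 0.5% DMSO, 210 min at room temperature. EDTA quench, WGA SPA bead capture, scintillation counting; IC50 from log-concentration fit.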
(In general: Scintillation proximity formats need no separation of bound from free tracer.)

T1 sequence (O00329 whole entry, species assumed): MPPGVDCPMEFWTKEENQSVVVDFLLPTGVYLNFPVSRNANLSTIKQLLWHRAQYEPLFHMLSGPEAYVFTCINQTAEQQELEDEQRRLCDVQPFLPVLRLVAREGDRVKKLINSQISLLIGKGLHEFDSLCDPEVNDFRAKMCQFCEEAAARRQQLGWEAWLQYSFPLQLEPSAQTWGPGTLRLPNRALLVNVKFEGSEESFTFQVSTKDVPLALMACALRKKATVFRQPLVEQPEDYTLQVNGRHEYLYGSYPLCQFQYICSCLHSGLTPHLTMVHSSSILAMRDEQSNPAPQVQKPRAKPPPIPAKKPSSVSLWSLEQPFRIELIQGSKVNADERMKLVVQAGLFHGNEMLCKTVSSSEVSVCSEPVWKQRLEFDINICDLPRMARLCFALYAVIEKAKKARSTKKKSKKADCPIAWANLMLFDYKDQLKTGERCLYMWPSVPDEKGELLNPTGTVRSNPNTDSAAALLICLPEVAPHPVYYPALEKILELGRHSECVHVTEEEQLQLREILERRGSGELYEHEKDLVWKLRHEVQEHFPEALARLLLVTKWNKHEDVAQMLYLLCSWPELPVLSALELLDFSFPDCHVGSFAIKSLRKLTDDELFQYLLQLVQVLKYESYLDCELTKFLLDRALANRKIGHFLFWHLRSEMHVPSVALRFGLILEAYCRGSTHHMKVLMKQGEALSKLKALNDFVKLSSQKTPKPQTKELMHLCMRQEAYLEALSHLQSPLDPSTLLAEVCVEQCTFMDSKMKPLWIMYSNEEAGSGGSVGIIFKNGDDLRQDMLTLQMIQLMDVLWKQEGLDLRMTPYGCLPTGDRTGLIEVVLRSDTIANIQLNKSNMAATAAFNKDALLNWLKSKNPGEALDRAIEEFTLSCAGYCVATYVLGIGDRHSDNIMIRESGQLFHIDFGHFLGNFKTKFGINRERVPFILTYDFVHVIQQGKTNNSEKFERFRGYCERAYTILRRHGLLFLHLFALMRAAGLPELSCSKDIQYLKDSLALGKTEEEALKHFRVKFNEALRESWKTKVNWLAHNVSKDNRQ
T1 sequence (P27986 whole entry partner, species assumed): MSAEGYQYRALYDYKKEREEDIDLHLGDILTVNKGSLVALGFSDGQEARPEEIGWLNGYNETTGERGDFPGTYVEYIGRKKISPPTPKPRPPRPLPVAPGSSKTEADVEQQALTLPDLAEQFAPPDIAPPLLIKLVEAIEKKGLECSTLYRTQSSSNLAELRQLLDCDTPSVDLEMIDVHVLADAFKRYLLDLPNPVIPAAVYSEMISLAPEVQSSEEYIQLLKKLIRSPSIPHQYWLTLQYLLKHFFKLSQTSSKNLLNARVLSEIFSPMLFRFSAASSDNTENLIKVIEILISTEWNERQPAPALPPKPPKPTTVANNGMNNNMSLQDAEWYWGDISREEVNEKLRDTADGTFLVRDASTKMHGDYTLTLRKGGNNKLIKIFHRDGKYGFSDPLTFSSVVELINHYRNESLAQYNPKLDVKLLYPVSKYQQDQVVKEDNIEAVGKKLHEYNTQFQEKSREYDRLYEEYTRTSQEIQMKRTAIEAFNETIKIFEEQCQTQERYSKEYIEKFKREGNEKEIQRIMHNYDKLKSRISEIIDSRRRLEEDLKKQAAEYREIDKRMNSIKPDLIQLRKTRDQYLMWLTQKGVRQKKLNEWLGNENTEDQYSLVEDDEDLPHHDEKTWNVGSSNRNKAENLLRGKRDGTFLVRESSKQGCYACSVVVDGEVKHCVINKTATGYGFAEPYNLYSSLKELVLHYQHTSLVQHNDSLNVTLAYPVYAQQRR

In the case of `COC(=O)N(C(=O)OC)c1c(C)c(Cl)cc(C(C)Nc2ncnc3[nH]cnc23)c1-c1cccc(F)c1` (stereo not drawn) [Example 10, Dimethyl {4-chloro-3′-fluoro-3-methyl-6-[1-(9H-purin-6-ylamino)ethyl]biphenyl-2-yl}imidodicarbonate], the IC50 in test [1] is 100 to 500 nM; in test [2] it was below 50 nM.
For `Cc1c(Cl)cc(C(C)Nc2ncnc3[nH]cnc23)c(-c2cccc(F)c2)c1-n1cnnc1` (stereo not drawn) [Example 11, N-{1-[4-chloro-3′-fluoro-5-methyl-6-(4H-1,2,4-triazol-4-yl)biphenyl-2-yl]ethyl}-9H-purin-6-amine], the IC50 was below 100 nM in test [1] and below 50 nM in test [2].
Consider `Cc1c(Cl)cc(C(C)Nc2ncnc3[nH]cnc23)c(-c2cccc(F)c2)c1N(S(C)(=O)=O)S(C)(=O)=O` (stereo not drawn) [Example 12, N-{4-chloro-3′-fluoro-3-methyl-6-[1-(9H-purin-6-ylamino)ethyl]biphenyl-2-yl}-N-(methylsulfonyl)methanesulfonamide], for which the values for the concentration for half-maximal inhibition (IC50) in test [1] and in test [2] were below 100 nM and below 50 nM, respectively.
As to `Cc1c(Cl)cc(C(C)Nc2ncnc3[nH]cnc23)c(-c2ccccc2)c1-c1cc(F)nc(F)c1` (stereo not drawn) [Example 13, N-{1-[4-chloro-6-(2,6-difluoropyridin-4-yl)-5-methylbiphenyl-2-yl]ethyl}-9H-purin-6-amine], the IC50 was below 100 nM in test [1] and below 50 nM in test [2].
For `Cc1c(Cl)cc(C(C)Nc2ncnc3[nH]cnc23)c(-c2ccccc2)c1-c1ccc(S(C)(=O)=O)cc1` (stereo not drawn) [Example 14, N-{1-[5′-chloro-6′-methyl-4-(methylsulfonyl)-1,1′:2′,1″-terphenyl-3′-yl]ethyl}-9H-purin-6-amine], the IC50 in test [1] was below 100 nM; in test [2] it was below 50 nM.
`Cc1c(Cl)cc(C(C)Nc2ncnc3[nH]cnc23)c(-c2ccccc2)c1-c1cnc(N(C)C)nc1` (stereo not drawn) [Example 15, N-(1-{4-chloro-6-[2-(dimethylamino)pyrimidin-5-yl]-5-methylbiphenyl-2-yl}ethyl)-9H-purin-6-amine]: the half-inhibitory concentration (IC50) is below 100 nM in test [1] and below 50 nM in test [2].
With `Cc1c(Cl)cc(C(C)Nc2ncnc3[nH]cnc23)c(-c2ccccc2)c1-c1ccc(C(=O)NC2CC2)cc1` (stereo not drawn) [Example 16, 5′-chloro-N-cyclopropyl-6′-methyl-3′-[1-(9H-purin-6-ylamino)ethyl]-1,1′:2′,1″-terphenyl-4-carboxamide], the IC50 was below 100 nM in test [1] and below 50 nM in test [2].
For `Cc1c(Cl)cc(C(C)Nc2ncnc3[nH]cnc23)c(-c2ccccc2)c1-c1cnc(N)nc1` (stereo not drawn) [Example 17, N-{1-[6-(2-aminopyrimidin-5-yl)-4-chloro-5-methylbiphenyl-2-yl]ethyl}-9H-purin-6-amine], the concentration for half-maximal inhibition (IC50) in test [1] was below 100 nM; in test [2], below 50 nM.
Turning to `COc1c(C(C)Nc2ncnc3[nH]cnc23)cc(Cl)c(C)c1N1CCCC1=O` (stereo not drawn) [Example 18, 1-{3-Chloro-6-methoxy-2-methyl-5-[1-(9H-purin-6-ylamino)ethyl]phenyl}pyrrolidin-2-one], the values for the IC50 in test [1] and in test [2] were 100 to 500 nM and 250 to 500 nM, respectively.
Consider `Cc1c(Cl)cc(C(C)Nc2ncnc3[nH]cnc23)c(-c2cc(F)cc(F)c2)c1C(N)=O` (stereo not drawn) [Example 19, 4-Chloro-3′,5′-difluoro-3-methyl-6-[1-(9H-purin-6-ylamino)ethyl]biphenyl-2-carboxamide], for which the IC50 in test [1] is below 100 nM; in test [2], below 50 nM.
With `COc1c(C(C)Nc2ncnc3[nH]cnc23)cc(Cl)c(C)c1-c1cnc(N(C)C)nc1` (stereo not drawn) [Example 20, N-(1-{5-chloro-3-[2-(dimethylamino)pyrimidin-5-yl]-2-methoxy-4-methylphenyl}ethyl)-9H-purin-6-amine], the figures for the IC50 in test [1] and in test [2] were 100 to 500 nM and below 50 nM, respectively.
As for `COc1c(C(C)Nc2ncnc3[nH]cnc23)cc(Cl)c(C)c1-c1ccnn1C` (stereo not drawn) [Example 21, N-{1-[5-chloro-2-methoxy-4-methyl-3-(1-methyl-1H-pyrazol-5-yl)phenyl]ethyl}-9H-purin-6-amine], the IC50 in test [1] is below 100 nM; in test [2] it was below 50 nM.
